Measured values from patent US11517572B2, “Killing senescent cells and treating senescence-associated conditions using a SRC inhibitor and a flavonoid” (Mayo Foundation for Medical Education and Research, priority 2014, dated 2022).

Experiments:
IMR90 cells = experiment: Killing of radiation-induced senescent vs proliferating IMR90 fibroblasts; type: cell-based, human; details: enzastaurin at 0.25 0.5 and 2 μM
From the text: Senescence of human primary lung fibroblasts (IMR90) (IMR-90 (ATCC® CCL-186TH, Mannassas, Va.) was induced by irradiation. IMR90 cells in culture were subjected to 10 Gy radiation (Day-7). Four days after irradiation (Day-3), the culture media was changed. Three days after the media change (Day 0), the cells were exposed to media containing quercetin. Non-irradiated IMR90 cells were included as controls. Non-irradiated and irradiated IMR90 cells were exposed to quercetin at concentrations of 5, 10, 15, and 45 μM. Percent survival was determined four days after exposure to the drugs (Day 4). The number of viable cells was determined by using ATPLITE (Perkin-Elmer, Waltham, Mass.).
In a separate experiment, IMR90 cells were irradiated as described above to induce senescence. Approximately 20 days after irradiation, the senescent cells and proliferating IMR90 cells were exposed to enzastaurin at concentrations of 0.25 0.5 and 2 μM.

HUVEC cells = experiment: Viability (ATPLITE) of senescent and proliferating HUVEC endothelial cells; type: cell-based, human; details: enzastaurin in combination with dasatinib, FIG. 4E, 48 hours
Protocol: Human umbilical endothelial cells (HUVEC) (Lonza Group, Basel, Switzerland) were induced to senescence by exposure to 10 Gy radiation. Twenty days after irradiation, markers of cellular senescence (SA-β Gal) and growth arrest, determined by incorporation of BR dU, were evident. Non-senescent HUVEC cells used as control were plated at low density in culture media so that the cells were proliferating when exposed to the test drug. Senescent HUVEC cells and non-senescent, proliferating HUVEC cells were treated for 48 hours with quercetin, dasatinib, and enzastaurin as follows: (1) quercetin alone at 3.75, 7.5 and 15μ,M; (2) dasatinib alone at 25, 50, 100, and 200 nM; (3) enzastaurin alone at concentrations of 0.25 0.5 1 and 2 μM; (4) dasatinib at 100 nM plus quercetin at 7.5 μM; (5) with dasatinib at 50 nM plus quercetin at 7.5 μM; (6) dasatinib at 100 nM plus enzastaurin at 1.0 μM; (7) dasatinib at 100 nM plus enzastaurin at 0.5 μM; (8) dasatinib at 50 nM plus enzastaurin at 1.0 μM; (9) dasatinib at 50 nM plus enzastaurin at 0.5 μM; (10) quercetin at 15 μM and enzastaurin at 1.0 μM; (11) quercetin at 15 μM and enzastaurin at 1.0 μM; and (12) quercetin at 7.5 μM and enzastaurin at 1.0 μM. The number of viable cells was determined by ATPLITE (Perkin-Elmer, Waltham, Mass.). The data are presented in FIGS. 4A-4F as mean viability (ATP (μM))+SEM of 4.

Senescent cells = experiment: SA-β-Gal senescent cells in adipose tissue of high fat fed p16-3MR mice; type: in vivo; details: high fat diet four months, 25 mg/kg daily for five consecutive days, p=<0.004
Protocol: Groups of p16-3MR mice (n=6) were fed a high fat diet (60% fat) for four months mice or a regular chow diet. The presence of senescence cells was determined by measuring luminescence (i.e., p16 positive cells). […] Animals were then treated with ganciclovir or vehicle to determine if removal of senescent cells reduced the presence of senescent cells in adipose tissue. Groups of animals were treated with ganciclovir (GCV) or vehicle. Ganciclovir (25 mg/kg) was administered daily for five consecutive days. The presence of senescent cells in perirenal, epididymal, or subcutaneous inguinal adipose tissue was detected by SA-β-Gal staining Data were analyzed by ANOVA.

[1] = Glucose tolerance test and hemoglobin A1c in high fat fed p16-3MR mice; type: in vivo; details: high fat diet, 3 rounds of 25 mg/kg daily for five days
Protocol: Groups of p16-3MR mice (n=9) were fed a high fat diet for four months mice or a regular chow diet. Animals were then treated with ganciclovir (3 rounds of 25 mg/kg ganciclovir administered daily for five consecutive days) or vehicle. A glucose bolus was given at time zero, and blood glucose was monitored at 20, 30, 60, and 120 minutes after delivering glucose to determine glucose disposal (see FIG. 18A). This was also quantified as “area under the curve” (AUC) (see FIGS. 18B and 18C), with a higher AUC value indicating glucose intolerance.

[2] = Insulin Tolerance Testing (ITT); type: in vivo, mice
Protocol: Insulin sensitivity was also determined (Insulin Tolerance Testing (ITT)).

[3] = Weight, body composition and food intake monitoring; type: in vivo; details: p16-3MR mice, high fat diet
From the text: Changes in weight, body composition, and food intake were also monitored.

[4] = Glucose tolerance testing in DIO INK-ATTAC,p16-3MR mice; type: in vivo; details: compared to vehicle-treated DIO mice
Protocol: Three-month old INK-ATTAC,p16-3MR mice were fed a high fat diet for 4 months. The animals were then treated with ganciclovir or vehicle. DIO mice were treated with ganciclovir on September 1 (see FIG. 21).

Structure (SMILES) | killing of proliferating IMR90 cells (IMR90 cells) | selective killing of senescent IMR90 cells (IMR90 cells; approximately 20 days after 10 Gy irradiation) | potentiating effect of dasatinib (HUVEC cells) | presence of senescent cells in epididymal fat (SA-β-Gal) (Senescent cells) | Hemoglobin A1c [1] | glucose tolerance test AUC ([1]; vs vehicle-treated) | decrease in blood glucose in insulin tolerance testing ([2]; p16-3MR mice fed a high fat diet, 0, 14, 30, 60, and 120 minutes) | change in insulin tolerance testing ([2]; wild-type mice) | body composition (percent of fat) [3] | body weight [3] | food intake (grams per week) [3] | glucose tolerance (areas under the curve in glucose tolerance tests) [4]
Cn1cc(C2=C(c3cn(C4CCN(Cc5ccccn5)CC4)c4ccccc34)C(=O)NC2=O)c2ccccc21 [Enzastaurin, 3-(1-Methylindol-3-yl)-4-[1-[1-(pyridin-2-ylmethyl)piperidin-4-yl]indol-3-yl]pyrrole-2,5-dione] | did not kill the proliferating cells | did not selectively kill the senescent cells | slight potentiating effect | – | – | – | – | – | – | – | – | –
Nc1nc(O)c2ncn(COC(CO)CO)c2n1 [ganciclovir] | – | – | – | significant reduction | lower | significantly lower | greater decrease in blood glucose | not observed | did not alter | did not alter | did not alter | sustained and improved glucose tolerance
